Series [1] in a line: DOSY 1H-NMR measurement of diffusion coefficients and hydrodynamic radius (Stokes-Einstein). Conditions: in ethanol; reference samples, 25° C. The format is physicochemical. An excerpt:
For the purposes of the present invention, “hydrodynamic radius”, or RH, means the radius of a solute in solution, said solute being assumed to be spherical, as defined by the following Stokes-Einstein relation [Edward, J. T. (1970) J. Chem. Educ. 47, 261; Einstein, A. (1905) Annalen Der Physik 17, 549-560; Einstein, A. (1906) Annalen Der Physik 19, 371-381]:
[formula] • D is the diffusion coefficient of the solute in the solvent (expressed in m^2·s^−1), • kB is the Boltzmann constant, and is kB=1.3806·10^−23 J·K^−1, • T is the temperature of the medium (expressed in K), • ρ is the viscosity of the medium (expressed in Pa·s, or equivalent in kg·s^−1·m^−1), and • RH is expressed in m. […]
The sizes of molecules in solution can be estimated by liquid NMR using so-called diffusion experiments to measure the diffusion coefficients of species in solution. The experiment is performed by applying a magnetic field gradient in a given direction, the direction in which the diffusion of particles is measured. […]
This table also includes viscosity values obtained from the literature [Khattab, I. S., Bandarkar, F., Fakhree, M. A. A., and Jouyban, A. (2012) Korean J. Chem. Eng. 29, 812-817], the mole fraction of ethanol and the hydrodynamic radius calculated from the Stokes-Einstein equation. The accuracy of the value thus calculated is estimated at ±0.1 Å. […]

Series [2] in a line: Stability / pre-stability studies of paracetamol in hydroalcoholic solution. The format is physicochemical.

Molecules are shown by their SMILES.

In the case of `CC(=O)Nc1ccc(O)cc1` [paracetamol], the RH of paracetamol in series [1] was found to be 4.2 Å. For the same molecule, the “Coloration in pre-stability studies” value in series [2] (6 months at 40° C., concentration greater than 115 mg/mL) was “appearance of pink coloration”. Besides, the “Recrystallization in stability studies” value in series [2] (concentration too high, typically above 125 mg/mL) is “recrystallizes over time”.

Values taken from patent publication US11617730B2, “Pharmaceutical formulation for administering paracetamol by buccal/gingival route” (Unither Pharmaceuticals, priority 2017, dated 2023).
